{"source": "BindingDB's records for patent US10112941", "about": "(Bristol-Myers Squibb, 2018)", "biological_target": "Bromodomain-containing protein 4 (Homo sapiens, UniProt O60885)", "assay": "TR-FRET Assay", "procedure": "All assay components were dissolved in buffer composition 20 mM Hepes pH 7.5, 150 mM NaCl, 5 mM DTT, 0.005% Tween 20, and 100 ug/ml BSA for BRD4 (1-477 and 44-460). The final concentrations of the bromodomain proteins are 1.6 nM BRD4(44-168), 1 nM BRD4(333-460), and 1 nM BRD4(1-477 or 44-460), and the fluorescent probe molecule is 100 nM, 50 nM, and 7.5 nM respectively. All proteins were biotinylated. A streptavidin labeled with terbium cryptate (Cisbio SA-Tb) was used as detection, and pre-mixed with the bromodomain protein at a final concentration of 0.2 nM. In some instances for BRD4 (44-460), anti-His terbium cryptate was used as a detection. 7.5 nl of dose-responsed test compound or dmso vehicle (0.0375%) was pre-spotted in a black Corning 384 well plate and 10 ul each of bromodomain/detection reagent and fluorescent small molecule solution were added to the plate, and the reaction incubated for 60 min at room temperature. Plates were then read on EnVision plate reader, (λex=340 nm, acceptor λEm=520 nm, and donor λEm=615 nm, LANCE D400 mirror). Time resolved fluorescence intensity measurements were made at both emissions, and the ratio of acceptor/donor was calculated and used for data analysis.", "data": [{"smiles": "Cc1nnn(C)c1-c1cnc2c3ccc(C(C)(C)O)cc3n([C@@H](c3ccccc3F)C3CCOCC3)c2c1", "note": "[US10112941, Example 65]", "values": [{"measurement": "IC50", "result": "< 5", "unit": "nM"}]}]}
